We go through 15 compounds from patent US10626095B2, “Cyanotriazole compounds” (OTSUKA PHARMACEUTICAL CO., LTD., priority 2013, dated 2020).

Molecules are shown by their SMILES.

The test system of data set [1] is NaCT-CHO (CHO cells stably expressing human NaCT). Kind of data set: Assay of the citric acid cycle activation ([1,5-14C]-citric acid, diffusion of [14C]-CO2). Conditions: 1 hour incubation at 37° C. with [1,5-14C]-citric acid. Type of data set: cell-based. In short, it runs like this: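 NaCT-CHO cells (pME-CHO empty-vector cells for non-specific counts) were incubated 1 h at 37 °C in Na+-containing HEPES-Tris pH 7.4 with compound plus an equal volume of 0.4 mM [1,5-14C]-citric acid solution. Residual cell radioactivity was counted, [14C]-CO2 diffusion was taken as (Total−R)/(Total−NS)×100%, and EC50 was derived by regression.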

Data set [2] concerns Zucker Diabetic Fatty (ZDF) rat. The data set is described as follows: Meal load test in type 2 diabetic model rats (postprandial blood glucose). It counts as in vivo. On the set-up: unit not given here. Conditions: ZDF rats fasted overnight, oral 10 mg/kg in 5% Arabia gum, blood glucose one hour after meal loading (50 kcal/kg). An outline of the steps:
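Overnight-fasted (17 h) ZDF rats, n=6 per group, given compound at 10 or 30 mg/kg orally in 5% Arabia gum 2 h before or just before a 50 kcal/kg AIN-93G meal load. Blood glucose at 1 h; effect expressed as BG1h difference from vehicle.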

Consider `N#Cc1[nH]nnc1-c1cccc(/C=C/c2ccc(F)cc2C(F)(F)F)c1` [Example 600, 5-{3-[(E)-2-(4-fluoro-2-trifluoromethyl-phenyl)-vinyl]-phenyl}-3H-[1,2,3]triazole-4-carbonitrile], for which the melting point (in general, the temperature of the solid-liquid transition) lay in the range of 189 to 192 °C. Besides, in data set [1], the 50% effective concentration (EC50) (as a rule, the concentration needed to bring the measured effect to its halfway point) was 430 nM. Moreover, the “BG1h (BG1h difference between compound group and vehicle group)” value in data set [2] is −74.0.

Compound `Cc1cc(/C=C/c2cccc(-c3nn[nH]c3C#N)c2)ccc1F` [Example 607, 5-{3-[(E)-2-(4-fluoro-3-methyl-phenyl)-vinyl]-phenyl}-3H-[1,2,3]triazole-4-carbonitrile] yielded a melting point of 194 to 196 °C. The compound also showed an EC50 in data set [1] of 450 nM. Further, the “BG1h (BG1h difference between compound group and vehicle group)” value in data set [2] is recorded as −106.8.

`N#Cc1[nH]nnc1-c1cc(Cl)cc(-c2cc3ccccc3s2)c1` [Example 718, 5-(3-benzo[b]thiophen-2-yl-5-chloro-phenyl)-3H-[1,2,3]triazole-4-carbonitrile] yielded a melting point of 231 to 233 °C. In data set [1], this compound returned a concentration giving a half-maximal response (EC50) of 1510 nM. For the same compound, the “BG1h (BG1h difference between compound group and vehicle group)” value in data set [2] is listed as −147.5.

In data set [1], `N#Cc1[nH]nnc1-c1cccc(-c2ccc3c(c2)OC(F)(F)O3)c1` [Example 931, 5-[3-(2,2-difluoro-benzo[1,3]dioxol-5-yl)-phenyl]-3H-[1,2,3]triazole-4-carbonitrile] came in with an EC50 of 690 nM. Besides, the “BG1h (BG1h difference between compound group and vehicle group)” value in data set [2] is −76.4.

As for `N#Cc1[nH]nnc1-c1cc(OC(F)(F)F)cc(-c2ccc3c(c2)OC(F)(F)O3)c1` [Example 934, 5-[3-(2,2-difluoro-benzo[1,3]dioxol-5-yl)-5-trifluoromethoxy-phenyl]-3H-[1,2,3]triazole-4-carbonitrile], it took 510 nM to reach a half-maximal effect in data set [1] (EC50). Moreover, in data set [2], the “BG1h (BG1h difference between compound group and vehicle group)” value is given as −87.2.

In data set [1], `CCOc1cc(-c2nccc(C(F)(F)F)n2)cc(-c2nn[nH]c2C#N)c1` [Example 944, 5-[3-ethoxy-5-(4-trifluoromethyl-pyrimidin-2-yl)-phenyl]-38-[1,2,3]triazole-4-carbonitrile] had a concentration for a half-maximal effect (EC50) of 1010 nM. For the same compound, the “BG1h (BG1h difference between compound group and vehicle group)” value in data set [2] is recorded as −125.1.

With `Cc1cc(-c2nn[nH]c2C#N)ccc1-c1nccc(C(F)(F)F)n1` [Example 989, 5-[3-methyl-4-(4-trifluoromethyl-pyrimidin-2-yl)-phenyl]-3H-[1,2,3]triazole-4-carbonitrile], the melting point is 214 to 218 °C. A half-maximal effect in data set [1] (EC50) was put at 800 nM. Further, the “BG1h (BG1h difference between compound group and vehicle group)” value in data set [2] is listed as −116.0.

Turning to `N#Cc1[nH]nnc1-c1cccc(/C=C/c2cc3ccccc3s2)c1` [Example 1004, 5-[3-((E)-2-benzo[b]thiophen-2-yl-vinyl)-phenyl]-3H-[1,2,3]triazole-4-carbonitrile], the EC50 in data set [1] is 1800 nM. In addition, the “BG1h (BG1h difference between compound group and vehicle group)” value in data set [2] is on record as −89.8.

In the case of `N#Cc1[nH]nnc1-c1cccc(/C=C/c2ccc3c(c2)OC(F)(F)O3)c1` [Example 1017, 5-{3-[(E)-2-(2,2-difluoro-benzo[1,3]dioxol-5-yl)-vinyl]-phenyl}-3H-[1,2,3]triazole-4-carbonitrile], in data set [1], the concentration for a half-maximal effect (EC50) was found to be 1000 nM. The “BG1h (BG1h difference between compound group and vehicle group)” value in data set [2] was −124.6.

The compound `N#Cc1[nH]nnc1-c1cccc(/C=C/c2cccc(C(F)(F)F)n2)c1` [Example 1018, 5-{3-[(E)-2-(6-trifluoromethyl-pyridin-2-yl)-vinyl]-phenyl}-3H-[1,2,3]triazole-4-carbonitrile] displayed an EC50 in data set [1] of 1170 nM. Moreover, in data set [2], the “BG1h (BG1h difference between compound group and vehicle group)” value is listed as −59.2.

For `CCc1sc(-c2ccc(Cl)cc2F)nc1-c1nn[nH]c1C#N` [Example 1248, 5-[2-(4-chloro-2-fluoro-phenyl)-5-ethyl-thiazol-4-yl]-3H-[1,2,3]triazole-4-carbonitrile], in data set [1], it took 3050 nM to reach a half-maximal effect (EC50). Besides, in data set [2], the “BG1h (BG1h difference between compound group and vehicle group)” value is reported as −82.2.

Compound `N#Cc1[nH]nnc1-c1ccc(/C=C/c2ccc(F)cc2)o1` [Example 1505, 5-{5-[(E)-2-(4-fluoro-phenyl)-vinyl]-furan-2-yl}-3H-[1,2,3]triazole-4-carbonitrile] gave a concentration for a half-maximal effect (EC50) in data set [1] of 420 nM. For the same compound, the “BG1h (BG1h difference between compound group and vehicle group)” value in data set [2] is recorded as −123.5.

As for `N#Cc1[nH]nnc1-c1cccc(-c2cc3ccccc3o2)n1` [Example 1573, 5-(6-(benzofuran-2-yl)-pyridin-2-yl)-3H-[1,2,3]triazole-4-carbonitrile], the melting point was in the range of 230 to 233 °C. For the same compound, the concentration for a half-maximal effect (EC50) in data set [1] stood at 1030 nM. For the same compound, the “BG1h (BG1h difference between compound group and vehicle group)” value in data set [2] was −132.7.

In turn, `N#Cc1[nH]nnc1-c1cc(N2CCCCC2)nc(-c2ccccc2)n1` [Example 1672, 5-(2-phenyl-6-(piperidin-1-yl)-pyrimidin-4-yl)-3H-[1,2,3]triazole-4-carbonitrile] came in with a half-maximal effective concentration (EC50) in data set [1] of 1290 nM. The “BG1h (BG1h difference between compound group and vehicle group)” value in data set [2] is recorded as −94.8.

On to `N#Cc1[nH]nnc1-c1cc(N2CCCC2)nc(-c2ccccc2)n1` [Example 1676, 5-(2-phenyl-6-(pyrrolidin-1-yl)-pyrimidin-4-yl)-3H-[1,2,3]triazole-4-carbonitrile], for which, in data set [1], the EC50 turned out to be 2220 nM. For the same compound, the “BG1h (BG1h difference between compound group and vehicle group)” value in data set [2] is −49.5.
